In patent US4138554A, “7-[D-α-(4-Hydroxy-1,5-naphthyridine-3-carboxamido)-α-phenyl (and p-hydroxyphenyl)acetamido]-3-carbamoyloxymethyl-3-cephem-4-carboxylic acids” (priority 1977, dated 1979):
Converted amounts (≈) assume the structure as drawn. Read-outs that look alike come from different tables or passages of the source.

Columns and labels:
Type in all cases: cell-based
[1] = system: K. pneumoniae; test: MIC by serial two-fold agar dilution (Mueller-Hinton agar), K. pneumoniae; conditions: Klebsiella pneumoniae, K. pneumoniae A9977, Table 6
Method: (§1) Minimum inhibitory concentrations (MIC) of BB-S520 were determined by serial two-fold agar dilution method using Steers' apparatus on Meuller-Hinton agar plate against 31 test organisms for the primary screening and also against 61 strains of Pseudomonas aeruginosa for the secondary evaluation. The results are shown in Table 1 and Table 2 along with those of BB-S514 and sulbenicillin.
(§2) Minimum inhibitory concentrations (MIC) of cephalosporins in the present study were determined by serial two-fold agar dilution method using Steers' apparatus on Mueller-Hinton agar plate against 31 test organisms for the primary screening and also against 61 strains of Pseudomonas aeruginosa for the secondary evaluation.

[2] = system: E. coli; test: MIC by serial two-fold agar dilution (Mueller-Hinton agar), E. coli; conditions: Escherichia coli, read-out: MIC
Method: as §1, §2

[3] = system: Klebsiella sp.; test: MIC by serial two-fold agar dilution (Mueller-Hinton agar), Klebsiella sp.; conditions: Klebsiella sp. A20452, Table 6; read-out: MIC
Method: as §1, §2

[4] = system: Pseudomonas sp.; test: MIC by serial two-fold agar dilution (Mueller-Hinton agar), Pseudomonas sp.; conditions: Pseudomonas sp. A20358, Table 6
Method: as §2

[5] = system: P. vulgaris; test: MIC by serial two-fold agar dilution (Mueller-Hinton agar), P. vulgaris; conditions: Proteus vulgaris; P. vulgaris A9539, Table 6; read-out: MIC
Method: as §1, §2

[6] = system: S. aureus; test: MIC by serial two-fold agar dilution (Mueller-Hinton agar), S. aureus; conditions: Staphylococcus aureus
Method: as §1, §2

[7] = system: P. morganii; test: MIC by serial two-fold agar dilution (Mueller-Hinton agar), P. morganii; conditions: Morganella morganii; P. morganii A9553, Table 6; read-out: MIC
Method: as §1, §2

[8] = system: S. enteritidis; test: MIC by serial two-fold agar dilution (Mueller-Hinton agar), S. enteritidis; conditions: Salmonella enterica; S. enteritidis A9531, Table 6; read-out: MIC
Method: as §1, §2

[9] = system: E. cloacae; test: MIC by serial two-fold agar dilution (Mueller-Hinton agar), E. cloacae; conditions: Enterobacter cloacae
Method: as §1, §2

[10] = system: S. marcescens; test: MIC by serial two-fold agar dilution (Mueller-Hinton agar), S. marcescens; conditions: Serratia marcescens; S. marcescens A20019, Table 6; read-out: MIC
Method: as §1, §2

[11] = system: P. mirabilis; test: MIC by serial two-fold agar dilution (Mueller-Hinton agar), P. mirabilis; conditions: Proteus mirabilis; P. mirabilis A9900, Table 6; read-out: MIC
Method: as §1, §2

[12] = system: P. aeruginosa; test: MIC by serial two-fold agar dilution (Mueller-Hinton agar), P. aeruginosa, primary screening
Method: as §1, §2

**Q.** For `CC1(C)S[C@@H]2[C@H](NC(=O)C(C(=O)O)c3ccccc3)C(=O)N2[C@H]1C(=O)O` (stereo partly shown) [Carbenicillin], which MIC [1] is on record?
**A.** Its MIC is 3.1 µg/mL (≈ 8.19 µM).

**Q.** What about the MIC ([2]; E. coli A9435, Table 6) of the same molecule?
**A.** Its MIC is 6.3 µg/mL (≈ 16.6 µM).

**Q.** And the MIC ([2]; E. coli A9844, Table 6)?
**A.** Its MIC is 0.2 µg/mL (≈ 0.529 µM).

**Q.** And the MIC ([2]; E. coli A10664, Table 6)?
**A.** Its MIC is 0.8 µg/mL (≈ 2.11 µM).

**Q.** What about the MIC ([2]; E. coli A20366, Table 6) of the same molecule?
**A.** The MIC was over 100 µg/mL.

**Q.** What about the MIC ([2]; E. coli A20520, Table 6) of the same molecule?
**A.** The MIC was 3.1 µg/mL (≈ 8.19 µM).

**Q.** What about the MIC ([2]; E. coli A20732, Table 6) of the same molecule?
**A.** Its MIC is 100 µg/mL (≈ 264 µM).

**Q.** What about the MIC ([2]; E. coli A20898, Table 6) of the same molecule?
**A.** The MIC was over 100 µg/mL.

**Q.** What about the MIC ([2]; E. coli Juhl A15119, Table 6) of the same molecule?
**A.** Its MIC is 1.6 µg/mL (≈ 4.23 µM).

**Q.** And the MIC ([2]; E. coli NIHJ, Table 6)?
**A.** Its MIC is 0.4 µg/mL (≈ 1.06 µM).

**Q.** What about the MIC [3] of the same molecule?
**A.** Its MIC is 6.3 µg/mL (≈ 16.6 µM).

**Q.** What about the MIC [4] of the same molecule?
**A.** Its MIC is 6.3 µg/mL (≈ 16.6 µM).

**Q.** And the MIC [5]?
**A.** The MIC was 3.1 µg/mL (≈ 8.19 µM).

**Q.** And the MIC ([6]; S. aureus BX-1633 A9606, Table 6, read-out: MIC)?
**A.** Its MIC is 3.1 µg/mL (≈ 8.19 µM).

**Q.** What about the MIC ([6]; S. aureus Smith A9537, Table 6, read-out: MIC) of the same molecule?
**A.** The MIC was 0.2 µg/mL (≈ 0.529 µM).

**Q.** And the MIC ([6]; S. aureus Smith A15907, Table 6)?
**A.** Its MIC is 25 µg/mL (≈ 66.1 µM).

**Q.** What about the MIC ([6]; S. aureus Smith A20239, Table 6, read-out: MIC) of the same molecule?
**A.** The MIC was 3.1 µg/mL (≈ 8.19 µM).

**Q.** And the MIC ([6]; S. aureus Smith A20240, Table 6, read-out: MIC)?
**A.** The MIC was 6.3 µg/mL (≈ 16.6 µM).

**Q.** And the MIC ([6]; S. aureus Smith A20701, Table 6, read-out: MIC)?
**A.** Its MIC is 25 µg/mL (≈ 66.1 µM).

**Q.** What about the MIC [7] of the same molecule?
**A.** Its MIC is over 100 µg/mL.

**Q.** And the MIC [8]?
**A.** Its MIC is 0.8 µg/mL (≈ 2.11 µM).

**Q.** What about the MIC ([9]; E. cloacae A9656, Table 6) of the same molecule?
**A.** The MIC was 3.1 µg/mL (≈ 8.19 µM).

**Q.** What about the MIC ([9]; E. cloacae A9657, Table 6) of the same molecule?
**A.** Its MIC is 12.5 µg/mL (≈ 33 µM).

**Q.** And the MIC ([9]; E. cloacae A9659, Table 6)?
**A.** The MIC was 3.1 µg/mL (≈ 8.19 µM).

**Q.** What about the MIC [10] of the same molecule?
**A.** The MIC was 3.1 µg/mL (≈ 8.19 µM).

**Q.** And the MIC [11]?
**A.** The MIC was 0.4 µg/mL (≈ 1.06 µM).

**Q.** And the MIC ([12]; P. aeruginosa A20229, Table 6)?
**A.** Its MIC is 12.5 µg/mL (≈ 33 µM).

**Q.** What about the MIC ([12]; Pseudomonas aeruginosa) of the same molecule?
**A.** Its MIC is 12.5 µg/mL (≈ 33 µM).

**Q.** What about the MIC ([12]; Pseudomonas aeruginosa, P. aeruginosa A9843, Table 6, read-out: MIC) of the same molecule?
**A.** The MIC was 25 µg/mL (≈ 66.1 µM).

**Q.** What about the MIC ([12]; Pseudomonas aeruginosa, P. aeruginosa A9930, Table 6, read-out: MIC) of the same molecule?
**A.** Its MIC is 25 µg/mL (≈ 66.1 µM).

**Q.** And the MIC ([12]; Pseudomonas aeruginosa, P. aeruginosa A20717, Table 6, read-out: MIC)?
**A.** Its MIC is 100 µg/mL (≈ 264 µM).
